Measurements: US20090232750A1, “Compositions for indoor tanning” (priority 2008, published 2009)

Experiments:
skeletal muscle ATP = details: oral administration; U.S. Pat. Nos. 6,159,942 and 6,534,480; cited from earlier work
lymphocytes = details: cell culture; U.S. Pat. No. 6,663,859; cited from earlier work
melanocytes [1] = experiment: 4% D-ribose lotion on back of forearm, applied one to four days (melanocyte stimulation vs Maillard reaction); type: in vivo
Excerpt: In order to ascertain that the tan color was due to the stimulation of melanocytes and not to a chemical reaction such as the Maillard reaction, the subject applied 4% D-ribose in the above referenced lotion to the back of the forearm. The lotion was applied one day only; two days; three days; and four days. […] By one week after application, the areas to which lotion was applied for one or two days began fading and were completely faded by ten days. The areas to which was applied for three or four days also began fading at one week after application and were completely faded by ten days after last application. The subject had areas of vitilago, a scar and freckles.

skin (tanning) = experiment: D-ribose lotion tested against commercial tanning creams on upper front thigh; type: in vivo
Method: In other experiments, D-ribose was tested against Jergen's Dark Tanning cream on the upper front thigh of the subject. Each was applied liberally over a six inch by four inch area twice a day for five days. The “tanning” agent in this cream is unknown. The areas on which the Jergen's was applied tanned in 36 hours, hit maximum darkness in two days and faded in eight days. […] In this test, the D-ribose caused maximum darkness in five days and persisted for two weeks after application was discontinued.
D-ribose was also tested against l'Oreal Sublime Glow as above. The active ingredients in this cream were 7.5% octinoate, octsalate 5.0%, octocrylene 3.0% and oxybenzone 6.17%. […] This color began fading within two days of last application and was completely faded within a week.
The evenness of the D-ribose tanned areas can be attributed to the natural production of melanin due to the stimulation by D-ribose penetrating and diffusing to the dermal cells.

skin = experiment: Preliminary experiments: D-ribose without penetrant applied to wound or skin; type: in vivo
Excerpt: Since the object of this invention is to deliver active ingredient to the basal and dermal cells below the epidermis, when the skin barrier is intact, it has been found necessary to include a penetrant in the solutions, lotions or creams of this invention. Such a penetrant will enhance the delivery of active ingredient by transitory disruption of the cell to cell connections of the skin. Penetrants in general include ionic detergents, non-ionic detergents, fatty acids, organic solvents and oils. Certain constructs such as liposomes and nanoparticles can also be used to transport active ingredient through the stratum corneum barrier. It is well known in the industry to select a penetrant with the desired characteristics, which vary in effect from the intense penetration of the solvent dimethyl sulfoxide (DMSO) which cause the rapid co-transport past the skin barrier of any agent present on the skin, to the milder action of dilute ethanol. Of recent interest are the constructs termed liposomes and nanoparticles, which are molecules that form closed structures that can incorporate an active ingredient. Liposomes and nanoparticles can readily penetrate otherwise impermeable barriers.
The skin is a barrier. […]

[2] = test system: fibroblasts in the basal layer; details: cited from earlier work
melanocytes [3] = experiment: Effect of D-ribose on melanocytes in vivo: four concentrations in commercial lotion on inside forearm; details: for Days to maximum tan / Days to first sign of tanning: twice a day, inside forearm; for Days to first sign of tanning: no sun light; for Spread of tanned area beyond the application site: two inch application area
Excerpt: To determine the effect of D-ribose on melanocytes, the dermal cells that produce a tanning color when exposed to sunlight, four concentrations of D-ribose suspended in a commercial lotion were applied with a cotton applicator twice a day to two inch areas of A subject's inside forearm. The test area was not exposed to sun light. The composition of the lotion was: water, glycerin, mineral oil, stearic acid, glycol stearate, stearamide AMP, petrolatum, dimethicone, chamomile, helianthus, sambucas, theobroma, seed butter, glyceryl, stearate, cetyl alcohol, triethanolamine, acetylated lanolin alcohol and cetyl acetate. The results are shown in Table I. Application was stopped after 11 days. Color began to fade at 14 days in all cases and was gone about two weeks after last application. […] The color spread, presumably because of lateral diffusion of the D-ribose within the dermis, stimulating melanocytes outside the application site. The spread area decreased in intensity of color as the diffused D-ribose decreased in concentration.

[4] = test system: cultured normal human fibroblasts; details: cited from earlier work
[5] = 4% D-ribose lotion applied for one or two days
[6] = 4% D-ribose lotion applied for three or four days
[7] = upper front thigh, twice a day for five days
[8] = composition containing 1% D-ribose, female volunteers
[9] = all cases, application stopped after 11 days

## O=C[C@H](O)[C@H](O)[C@H](O)CO [D-ribose]
Skeletal muscle ATP
  Effect on ATP levels in skeletal muscle: raises ATP levels in skeletal muscle
lymphocytes
  Effect on growth of lymphocytes: stimulates the growth of lymphocytes
Melanocytes [1]; 4% D-ribose in lotion, back of forearm, all four areas (applied one, two, three, four days)
  Tanning by day three: lightly tanned
Melanocytes [1]; [5]
  Time after application at which areas began fading: one
  Time until completely faded: ten
Melanocytes [1]; [6]
  Time after application at which areas began fading: one
  Time after last application until completely faded: ten
Melanocytes [1]; subject's areas of vitilago and a scar
  Tanning of areas of vitilago and scarring: did not tan
Melanocytes [1]; subject's freckles
  Effect on freckles: got darker
Skin (tanning); all experiments
  Uniformity of tanned area: uniform and not blotchy
Skin (tanning); [7]
  Persistence of tan after application was discontinued: two
  Time to maximum darkness: five
Skin (tanning); upper front thigh, twice a day for five days, D-ribose at 4% in lotion
  Spread of color beyond area of application: spread beyond the area of application
skin; D-ribose in water applied to the skin, no penetrant
  Effect on tanning: no effect on tanning
skin; preliminary application of ribose without penetrant
  Effect on improving skin: unsuccessful
[2]; [8]
  Effect on face wrinkles: reduce face wrinkles
  Tanning effect: No tanning effect
[2]; lower amounts of D-ribose, as noted in the '707 application
  Melanin formation: do not stimulate melanin formation
Melanocytes [3]; 1.0% w/v D-ribose in lotion
  Days to maximum tan: No tanning
  Days to first sign of tanning: No tanning
Melanocytes [3]; 4% w/v D-ribose
  Color of spread area versus center of application: diameter. The spread area is not as dark as the
Melanocytes [3]; 4% w/v D-ribose in lotion
  Days to maximum tan: Six
  Days to first sign of tanning: Four
Melanocytes [3]; 4% w/v D-ribose, at six days
  Diameter of tanned area: the tanned area is about four inches in
  Spread of tanned area beyond the application site: two inches beyond the application site, that is,
Melanocytes [3]; 6% w/v D-ribose
  Color of tan compared with other concentration: A little darker than the 4%, the tanned area has
  Diameter of tanned area: site, that is, the tanned area is about four inches
  Spread of tanned area beyond the application site: spread about two inches beyond the application
Melanocytes [3]; 6% w/v D-ribose in lotion
  Days to maximum tan: Six
  Days to first sign of tanning: Four
Melanocytes [3]; 10% w/v D-ribose
  Color of tan compared with other concentration: the same as for the 6%.
  Diameter of tanned area: is now about eight inches in diameter. Color is
  Spread of tanned area beyond the application site: The tanned area has spread about three inches
Melanocytes [3]; 10% w/v D-ribose in lotion
  Days to maximum tan: Six
  Days to first sign of tanning: Four
Melanocytes [3]; [9]
  Day at which color began to fade: 14 days
  Time after last application until color was gone: about two
Melanocytes [3]; fair-skinned subject
  Intensity of tan reached: medium intensity
  Quality of tan color: identical to that resulting from normal sun tanning
[4]
  Effect on fibroblasts subjected to hypoxic shock: protective effect
